The values that follow come from patent US20020165281A1, “Treatment of anoxic encephalophathy by administration of N-acetylcystein” (priority 2001, published 2002).

Each structure is given as a SMILES string.

This experiment has as its system anoxic encephalopathy and ischemic events. In words: Clinical case reports of patients with anoxic encephalopathy or ischemic events treated with N-acetylcystein. The class given is in vivo, human. The text has this:
A person was admitted to the intensive care unit in a deep coma. Several hours prior to the admission, they suffered from a persistent ventricular arrhythmia that led to a cardiac arrest. They required nine successive electroshocks in order to reestablish their regular cardiac rhythm. The total interruption time of their blood supply to the brain was considered to be more than ten minutes. […] Their pupils were fixed and dilated, and they were placed on a mechanical ventilation. As they were unable to trigger the ventilator by themself, they were placed on an automatic mode of mechanical ventilation. There was no improvement in their condition over the next forty-eight hours. A neurologist determined their condition to be irreversible and hopeless. A second neurologist concurred. During the forty-eight hour interval, the patient was given 600 mg of N-acetylcystein in a twenty percent solution, administered via a nasal-gastric tube every twelve hours. […] They awakened and was able to communicate by head nods and facial expressions.
A high school teacher went into a cardiac arrest while driving in their car. By the time they arrived at a hospital emergency room and was resuscitated, a period of twenty to thirty minutes of an interruption of the blood supply to the brain had elapsed. Even though the cardiac resuscitation efforts were successful, they remained in a deep coma, a vegetative state, and required a life supporting mechanical ventilation. Over the next two years, they remained on mechanical ventilation, gastrostomy tube feedings, and in a coma without any improvement in their cerebral or neurological functions. Their prognosis for recovery was considered hopeless.
Approximately two years after the cardiac arrest, they were administered 600 mg of N-acetylcystein in a twenty percent solution twice daily. Over the next several months, they made a remarkable recovery. […] They became alert and able to respond initially to tacit and aural stimuli, and later they were able to understand simple sentences.
A person lapsed into a coma from a cerebral hemorrhage secondary to a vascular stroke. As their condition continued to deteriorate, they required a life supporting mechanical ventilation. Several months later they developed a brain abscess that required a craniotomy. This was followed by the appearance of an intense seizure disorder.
Following the surgery, it became possible to gradually wean […] from the respirator, but […] remained in a semi-vegetative state, unable to respond to aural stimuli and fed by a gastrostomy tube. […] remained completely bedridden.
More than three years after the initial event, they were administered 600 mg of N-acetylcystein in a twenty percent solution twice daily via their gastrostomy tube. Over the next several months, they made a remarkable recovery. […] By the third month of treatment, they were able to sit in a wheelchair and express their wishes to be driven around the facility where they resided. By the fourth month of the treatment, they regained the capacity to express themself verbally even though it was restricted to a vocabulary of mono and disyllabic words. They also regained the ability to lift their head, which i previously lay flexed upon their chest, without the use of an assisting device. […] Their neurological and cerebral recoveries continued to progress.
A medical technician experienced a series of multiple strokes that led to a semi-comatose state lasting more than two years. Their medical condition deteriorated over time with the development of multi-organ failures. They required a mechanical ventilation and hemo-dialysis for life support. Three years after the onset of their condition and several months after all efforts to wean them from the respirator failed, they were initially administered 600 mg of N-acetylcystein in a twenty percent solution twice daily via a gastrostomy tube.

With `CC(=O)N[C@@H](CS)C(=O)O` [N-acetylcystein], for the setting “acute phase and many months or years after the initial event”, the “Overall therapeutic efficacy indicated by the four cases” value is given as “reversing a coma as well as other neurological deficits”. The “Breathing / respirator dependence, Case No. 1” value (person on mechanical ventilation, 600 mg every twelve hours via nasal-gastric tube, forty-eight hour period) is recorded as “able to breath partially on their own without the respirator”. Further, the “Coma / neurological outcome, Case No. 2” value (person, coma for two years after cardiac arrest, 600 mg in twenty percent solution twice daily, over several months) is on record as “awakened from their coma”. Where the note is “person, coma for two years, 600 mg twice daily, by the fourth month of treatment”, the “Verbal response, Case No. 2” value is “able to respond verbally”. Further, the “Coma / neurological outcome, Case No. 1” value (person, deep coma after cardiac arrest, 600 mg in twenty percent solution via nasal-gastric tube every twelve hours, forty-eight hour period) is recorded as “completely revived from their coma”. In addition, the “Respirator dependence, Case No. 4” value (person, multiple strokes, semi-comatose, ventilated, 600 mg twice daily via gastrostomy tube increased to 2400 mg daily) is “improved and no longer needed the respirator”. Moreover, the “Ambulation, Case No. 3” value (person, previously bedridden, 600 mg twice daily via gastrostomy tube, by the fifth month of treatment) is on record as “able to ambulate more than one hundred steps with the aid of a walker or the wheelchair”. Besides, the “Neurological outcome, Case No. 3” value (person, semi-vegetative state more than three years after cerebral hemorrhage/stroke, 600 mg twice daily via gastrostomy tube, over several months) was “became completely alert and able to respond to simple verbal commands”. Where the note is “person, two years on mechanical ventilation, 600 mg twice daily”, the “Respirator dependence, Case No. 2” value is given as “no longer needed the respirator”.
